The target in the experiment is Microphthalmia-associated transcription factor (Homo sapiens) (UniProt O75030). Description: MITF inhibitors by FRET titration, dose response, biochemical, high throughput (AID 1259375).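 Also: FRET between CFP-tagged and YFP-tagged MITF protein partners.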 Particulars: FRET biochemical assay, MITF inhibition.

The source made the active and inactive calls. No rule for the calls is given here.

Among the data in PubChem BioAssay AID1259375 (The Scripps Research Institute Molecular Screening Center, 2018) are IC50 values, retold here.

The IC50 is the concentration that gives 50% inhibition.

Sequence of Microphthalmia-associated transcription factor (Homo sapiens) (O75030 whole entry, looked up): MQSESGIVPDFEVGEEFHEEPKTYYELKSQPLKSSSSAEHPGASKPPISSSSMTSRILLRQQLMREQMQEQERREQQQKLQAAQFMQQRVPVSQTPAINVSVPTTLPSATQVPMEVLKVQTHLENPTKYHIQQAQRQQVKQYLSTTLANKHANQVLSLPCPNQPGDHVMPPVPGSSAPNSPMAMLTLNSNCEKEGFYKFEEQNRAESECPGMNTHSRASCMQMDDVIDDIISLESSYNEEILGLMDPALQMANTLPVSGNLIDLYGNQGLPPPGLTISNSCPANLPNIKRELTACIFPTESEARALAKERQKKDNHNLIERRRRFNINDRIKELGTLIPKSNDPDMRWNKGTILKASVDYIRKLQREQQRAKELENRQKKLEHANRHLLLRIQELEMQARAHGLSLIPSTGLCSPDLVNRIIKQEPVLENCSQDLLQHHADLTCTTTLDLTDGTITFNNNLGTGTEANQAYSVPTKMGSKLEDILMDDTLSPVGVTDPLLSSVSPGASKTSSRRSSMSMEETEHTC

For `O=C1N[C@H](Cc2ccccc2)C(=O)N2CCN(C(=O)NC3CCCCC3)C[C@H]12`, the IC50 is > 6.48 µM (inactive).
For the compound `O=C1N[C@H](Cc2ccccc2)C(=O)N2CCN(C(=O)NCc3ccccc3)C[C@H]12`, the IC50 was > 6.48 µM (inactive).
Take `COc1ccc(C)cc1NS(=O)(=O)c1ccc2c(c1)CCC(=O)N2`: the IC50 was > 6.48 µM (inactive).
Next, `O=C(NNC(=S)Nc1ccccc1)C(=O)NNC(=S)Nc1ccccc1`: > 6.67 µM (inactive); `N#Cc1c(-c2ccco2)cc(-c2ccco2)nc1N`: > 6.48 µM (inactive); `CN1C(=O)[C@H]2CN(C(=O)NC3CCCCC3)CCN2C(=O)[C@@H]1Cc1ccccc1`: > 6.48 µM (inactive).
Turning to `O=C(COC(=O)/C=C/c1ccco1)COC(=O)/C=C/c1ccco1`, the IC50 was > 7.07 µM (inactive).
Next, `C/C(=N\NC(=O)Cc1cc(=O)[nH][nH]1)c1ccco1`: > 6.48 µM (inactive).
For the compound `O=C(Nc1ccc(N2CCOCC2)cc1)c1ccnc(Nc2ncccn2)c1`, the IC50 was > 7.06 µM (inactive).
Next, `NC1(C(Cl)(Cl)Cl)Oc2ccccc2O1`: > 6.48 µM (inactive); `CN1CC[C@H](Oc2cc(-c3cn[nH]c3)ccc2NC(=O)OCc2ccccc2)C1`: > 6.48 µM (inactive).
Next, `O=C(C1CCC(Nc2nccc(-c3ccc4nc(C5CC5)[nH]c(=O)c4c3)n2)CC1)N1CCCC1` (centres undefined): > 6.48 µM (inactive); `NS(=O)(=O)c1ccc(N=Cc2cc3c(cc2[N+](=O)[O-])OCO3)cc1`: > 6.48 µM (inactive); `CCOC(=O)N1CCN(C(=S)Nc2ccc(OCC)cc2)CC1`: > 6.48 µM (inactive).
Take `Cc1ccc(S(=O)(=O)C(CNC(=O)c2ccco2)c2cccs2)cc1` (centres undefined): the IC50 was > 6.56 µM (inactive).
`O=C1CCCC2=C1C(c1ccc([N+](=O)[O-])o1)C1=C(CCCC1=O)O2`: the IC50 was > 7.09 µM (inactive).
Next, `Cc1ccc(CCC(=O)Nc2ccc(-c3cn4c5c(nnc4n3)CCCC5)cc2)o1`: > 6.48 µM (inactive); `N=C1S/C(=C\c2ccco2)C(=O)N1c1nonc1N`: 3.61 µM; `CNC(=O)COc1cc(-c2cn[nH]c2)ccc1NC(=O)C1COc2ccc(OC)cc2C1` (centres undefined): > 6.48 µM (inactive).
Take `CN(C)CCn1nnnc1SCC1=C(C(=O)O)N2C(=O)[C@@H](NC(=O)Cc3csc(N)n3)[C@H]2SC1`: the IC50 is > 6.48 µM (inactive).
For the compound `COc1c(O)cc(O)cc1O`, the IC50 was > 6.48 µM (inactive).
Next, `O=C(NCCO)c1ccc2nc(-c3ccco3)c(-c3ccco3)nc2c1`: 1.8 µM; `CC(C)N(C(=O)COC(=O)c1cc(-c2ccco2)nc2ccccc12)C(C)C`: > 6.82 µM (inactive); `O=C1N[C@@H](COCc2ccccc2)C(=O)N2CCN(C(=O)NC3CCCCC3)C[C@H]12`: > 6.48 µM (inactive).
Next, `O=c1[nH]cccc1-c1ccc(Nc2nccc(-c3ccc4nc(C5CC5)[nH]c(=O)c4c3)n2)cc1`: > 6.48 µM (inactive).
Next, `O=C(/C=C/c1ccco1)NCCCCNC(=O)/C=C/c1ccco1`: > 6.48 µM (inactive); `NCC1OC(=O)C(Oc2ccccc2)=C1Br` (centres undefined): > 6.48 µM (inactive).
As for `O=C(/C=C/c1ccco1)NCCCCCCNC(=O)/C=C/c1ccco1`, the IC50 was > 6.48 µM (inactive).
As to `CN(C)C(=O)N1CCN(S(=O)(=O)c2cccc([N+](=O)[O-])c2)CC1`, the IC50 is > 6.48 µM (inactive).
For `C[C@@H](OCc1ccccc1)[C@@H]1NC(=O)[C@H]2CN(C(=O)NCc3ccccc3)CCN2C1=O`, the IC50 is > 6.48 µM (inactive).
As for `C=CCNC(=O)COC(=O)c1cc(-c2ccco2)nc2ccccc12`, the IC50 was > 6.94 µM (inactive).
Regarding `O=C(NCC(c1cccs1)S(=O)(=O)c1ccc(Cl)cc1)c1ccco1` (centres undefined), the IC50 was > 6.55 µM (inactive).
Next, `O=C1N[C@@H](CSCc2ccccc2)C(=O)N2CCN(C(=O)NC3CCCCC3)C[C@H]12`: > 6.48 µM (inactive); `O=C(O)c1ccccc1-c1ccc(/C=C/[N+](=O)[O-])o1`: > 6.48 µM (inactive); `O=C(/C=C/c1ccco1)Nc1nnc(-c2ccco2)s1`: > 6.48 µM (inactive).
Next, `N#C/C(=C\c1nn(-c2ccccc2)c(N)c1C#N)c1ccco1`: > 6.48 µM (inactive); `COc1cc2cc3c(N)c(C(=O)Nc4sc(C)c(C)c4C#N)sc3nc2cc1OC`: > 6.48 µM (inactive).
For `COc1ccc2c(c1)CC(c1nc(Nc3ccc4cnccc4c3)c3ccccc3n1)CO2` (centres undefined), the IC50 is > 6.48 µM (inactive).
Next, `O=C(O)c1coc(CNC(=O)c2cocc2C(=O)O)c1`: > 6.48 µM (inactive).
Turning to `CN1CC(=O)N2CCN(C(=O)NC3CCCCC3)C[C@@H]2C1=O`, the IC50 was > 6.48 µM (inactive).
Next, `O=Cc1cccn1-c1ccc(C(=O)O)cc1`: > 6.48 µM (inactive); `COc1ccc2c(c1)CC(C(=O)Nc1ccc(-c3cn[nH]c3)cc1OCc1ccccc1)CO2` (centres undefined): > 6.48 µM (inactive); `Cc1cccc(CN2CCN(C3CCC(C)CC3)CC2)c1` (centres undefined): > 5.54 µM (inactive).
On to `COc1ccc(C[C@@H]2NC(=O)[C@H]3CN(C(=O)NCc4ccccc4)CCN3C2=O)cc1`, for which the IC50 was > 6.48 µM (inactive).
Next, `CCOC(=O)C1C2NC(=S)N(CC)C1(C)Oc1ccc(Br)cc12` (centres undefined): > 6.31 µM (inactive); `CC(C)[C@@H]1NC(=O)[C@H]2CN(C(=O)NCc3ccccc3)CCN2C1=O`: > 6.48 µM (inactive).
With `CC(C)[C@@H]1NC(=O)[C@H]2CN(C(=O)NC3CCCCC3)CCN2C1=O`, the IC50 is > 6.48 µM (inactive).
On to `O=C(OC1CCCC1=O)c1ccc(N2CCCC2=O)cc1` (centres undefined), for which the IC50 was > 7.22 µM (inactive).
Next, `O=C(O)COc1ccc(-n2cccc2)cc1`: > 6.48 µM (inactive); `COC(=O)CCc1cc2c(C)cc(=O)oc2cc1OCc1ccc(C)cc1`: > 6.48 µM (inactive).
On to `O=C(COc1ccccc1C(=O)OC1CCCC1=O)Nc1cccc(C(F)(F)F)c1` (centres undefined), for which the IC50 was > 6.77 µM (inactive).
For the compound `COC(=O)CN(CCN(CC(=O)O)CC(=O)OC)CC(=O)O`, the IC50 is > 5.37 µM (inactive).
Next, `CC[C@H](C)[C@@H]1NC(=O)[C@H]2CN(C(=O)NC3CCCCC3)CCN2C1=O`: > 6.48 µM (inactive); `COc1cccc(CN2CCN(C(=O)c3ccc(F)cc3)CC2)c1`: > 5.27 µM (inactive); `CC1CCC(N2CCN(Cc3ccco3)CC2)CC1` (centres undefined): > 6.25 µM (inactive).
For `CCOc1ccc(CN2CCN(Cc3cccnc3)CC2)cc1`, the IC50 is > 5.78 µM (inactive).
With `Cc1cccc(OCC(=O)N2CCN(Cc3cccc(Br)c3)CC2)c1`, the IC50 was > 6.48 µM (inactive).
`O=c1[nH]cnc2nc(-c3ccco3)c(-c3ccco3)nc12`: the IC50 was > 7.63 µM (inactive).
For `O=C1N[C@@H](CSCc2ccccc2)C(=O)N2CCN(C(=O)NCc3ccccc3)C[C@H]12`, the IC50 is > 6.48 µM (inactive).
Next, `C[C@@H]1NC(=O)[C@H]2CN(C(=O)NCc3ccccc3)CCN2C1=O`: > 6.48 µM (inactive); `C[C@H]1NC(=O)[C@H]2CN(C(=O)NCc3ccccc3)CCN2C1=O`: > 6.48 µM (inactive).
Next, `O=C(Nc1ccc(Oc2ccccc2)cc1)c1ccnc(-c2cccs2)c1`: > 6.71 µM (inactive).
Next, `O=C(OCCCC(=O)N1CCOCC1)c1cc(-c2ccco2)nc2ccccc12`: > 6.58 µM (inactive); `COc1ccc2c(c1)C1NC(=S)N(c3cccc(C)c3)C(C)(O2)C1C(=O)Nc1ccc(C)cc1C` (centres undefined): > 5.71 µM (inactive); `Cc1ccc2[nH]c(=O)c(=O)[nH]c2c1`: > 12.1 µM (inactive).
As to `O=C(/C=C/c1ccco1)NC(=S)Nc1ccc(Cl)c(C(=O)O)c1`, the IC50 was > 6.48 µM (inactive).
Next, `O=P(O)(O)C(Cl)(Cl)P(=O)(O)O`: > 6.48 µM (inactive).
As for `CCC(C)c1ccccc1OCCNCCN(C)C` (centres undefined), the IC50 is > 6.48 µM (inactive).
With `COc1ccc2c(c1)CC(C(=O)Nc1ccc(-c3cn[nH]c3)cc1OCC(N)=O)CO2` (centres undefined), the IC50 is > 6.48 µM (inactive).
Next, `O=C(NC1CCCCC1)N1CCN2C(=O)[C@@H]3C[C@@H](O)CN3C(=O)[C@H]2C1`: > 6.48 µM (inactive).
Next, `CCOC(=O)C1CCCN(Cc2cccc(Br)c2)C1` (centres undefined): > 6.48 µM (inactive); `CCC12c3ccccc3C(c3ccccc31)C1C(=O)NC(=O)C12` (centres undefined): > 6.48 µM (inactive); `O=C(Nc1ccc(N2CCOCC2)cc1)c1cccc(Nc2ccncn2)n1`: > 7.56 µM (inactive).
Take `O=c1c2ccccc2nc(-c2ccccc2)n1-c1ccccc1O`: the IC50 is > 6.5 µM (inactive).
Regarding `C[C@@H](OCc1ccccc1)[C@@H]1NC(=O)[C@H]2CN(C(=O)Nc3cccc(F)c3)CCN2C1=O`, the IC50 was > 6.48 µM (inactive).
Next, `CC1=C/C(=N\N=C2\NC(=O)C(CC(=O)Nc3ccc(C(=O)O)cc3)S2)CC(C)(C)C1` (centres undefined): > 6.48 µM (inactive).
Next, `COc1cc(C(=O)N2CCN(Cc3ccccc3C)CC2)cc(OC)c1OC`: > 5.62 µM (inactive); `O=C(NCc1ccccc1)N1CCN2C(=O)[C@@H]3CSCN3C(=O)[C@H]2C1`: > 6.48 µM (inactive).
As for `O=C(c1ccc([N+](=O)[O-])cc1)N1CCN(Cc2cccc3ccccc23)CC1`, the IC50 is > 5.48 µM (inactive).
Next, `O=C(/C=C/c1ccco1)NC(=S)Nc1cc(C(=O)O)ccc1Cl`: 3.33 µM.
Turning to `C/C=C\C1=C(C(=O)O)N2C(=O)C(NC(=O)C(N)c3ccc(O)cc3)C2SC1` (centres undefined), the IC50 was > 6.48 µM (inactive).
Next, `COc1ccc(C)cc1NC(=O)C(NCC(O)c1ccccc1)c1ccccc1` (centres undefined): > 7.02 µM (inactive); `COc1cc(N2CCOCC2)ccc1Nc1cc(Nc2ccccc2-n2cccn2)c(C(F)(F)F)cn1`: > 6.48 µM (inactive); `O=C(CN1C(=O)NC2(CCCCCC2)C1=O)NC(=O)NCc1ccco1`: > 7.16 µM (inactive).
